PMC8079033, “Design, synthesis, anticancer evaluation, and molecular modelling studies of novel tolmetin derivatives as potential VEGFR-2 inhibitors and apoptosis inducers” (Journal of Enzyme Inhibition and Medicinal Chemistry, 2021)

How the values were obtained:
[1] = system: leukaemia HL-60 (TB) cell line; experiment: MTT cytotoxicity assay; format: cell-based; conditions: Homo sapiens, mean ± SD of three experiments
MALME-3M = experiment: NCI 60-cell line one-dose antiproliferative screen (SRB); format: cell-based; conditions: Homo sapiens, read-out: growth inhibition % (GI%)
Method in brief: (§1)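 A 48 h, 10 µM exposure is scored by SRB protein dye. Percent growth accounts for starting cell density, allowing lethality as well as cytostasis to be detected.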

Colo 205 = experiment: as above; format: cell-based; conditions: Homo sapiens, read-out: growth inhibition % (GI%)
Method in brief: as §1

HT29 = experiment: as above; format: cell-based; conditions: Homo sapiens, HT-29, read-out: growth inhibition % (GI%)
Method in brief: as §1

SF-539 = experiment: as above; format: cell-based; conditions: Homo sapiens, read-out: growth inhibition % (GI%)
Method in brief: as §1

HS 578 T = experiment: as above; format: cell-based; conditions: Homo sapiens, read-out: growth inhibition % (GI%)
Method in brief: as §1

HL-60 (TB) = experiment: as above; format: cell-based; conditions: Homo sapiens, read-out: growth inhibition % (GI%)
Method in brief: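 At 10 µM, compounds incubate with cells 48 h (37 °C, 5% CO2, 100% humidity) following a 24 h attachment period. Fixation in trichloroacetic acid precedes sulforhodamine B staining and Tris-solubilised dye measurement.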

UACC-257 = experiment: as above; format: cell-based; conditions: Homo sapiens, read-out: growth inhibition % (GI%)
Method in brief: as §1

ACHN = experiment: as above; format: cell-based; conditions: Homo sapiens, read-out: growth inhibition % (GI%)
Method in brief: as §1

UO-31 = experiment: as above; format: cell-based; conditions: Homo sapiens, read-out: growth inhibition % (GI%)
Method in brief: as §1

786-0 = experiment: as above; format: cell-based; conditions: Homo sapiens, read-out: growth inhibition % (GI%)
Method in brief: as §1

NCI-H460 = experiment: as above; format: cell-based; conditions: Homo sapiens, read-out: growth inhibition % (GI%)
Method in brief: as §1

SK-MEL-28 = experiment: as above; format: cell-based; conditions: Homo sapiens, read-out: growth inhibition % (GI%)
Method in brief: as §1

SR = experiment: as above; format: cell-based; conditions: Homo sapiens, read-out: growth inhibition % (GI%)
Method in brief: as §1

SK-MEL-2 = experiment: as above; format: cell-based; conditions: Homo sapiens, read-out: growth inhibition % (GI%)
Method in brief: as §1

SK-OV-3 = experiment: as above; format: cell-based; conditions: Homo sapiens, read-out: growth inhibition % (GI%)
Method in brief: as §1

OVCAR-4 = experiment: as above; format: cell-based; conditions: Homo sapiens, read-out: growth inhibition % (GI%)
Method in brief: as §1

NCI-H23 = experiment: as above; format: cell-based; conditions: Homo sapiens, read-out: growth inhibition % (GI%)
Method in brief: as §1

KM12 = experiment: as above; format: cell-based; conditions: Homo sapiens, read-out: growth inhibition % (GI%)
Method in brief: as §1

HCT-15 = experiment: as above; format: cell-based; conditions: Homo sapiens, read-out: growth inhibition % (GI%)
Method in brief: as §1

HCC-2998 = experiment: as above; format: cell-based; conditions: Homo sapiens, read-out: growth inhibition % (GI%)
Method in brief: as §1

DU-145 = experiment: as above; format: cell-based; conditions: Homo sapiens, read-out: growth inhibition % (GI%)
Method in brief: as §1

TK-10 = experiment: as above; format: cell-based; conditions: Homo sapiens, read-out: growth inhibition % (GI%)
Method in brief: as §1

OVCAR-5 = experiment: as above; format: cell-based; conditions: Homo sapiens, read-out: growth inhibition % (GI%)
Method in brief: as §1

NCI-H226 = experiment: as above; format: cell-based; conditions: Homo sapiens, read-out: growth inhibition % (GI%)
Method in brief: as §1

SK-MEL-5 = experiment: as above; format: cell-based; conditions: Homo sapiens, read-out: growth inhibition % (GI%)
Method in brief: as §1

CAKI-1 = experiment: as above; format: cell-based; conditions: Homo sapiens, read-out: growth inhibition % (GI%)
Method in brief: as §1

OVCAR-3 = experiment: as above; format: cell-based; conditions: Homo sapiens, read-out: growth inhibition % (GI%)
Method in brief: as §1

renal (UO-31) cell line = experiment: MTT cytotoxicity assay; format: cell-based; conditions: Homo sapiens, mean ± SD of three experiments
colon (HCT-15) cell line = experiment: MTT cytotoxicity assay; format: cell-based; conditions: Homo sapiens, mean ± SD of three experiments
[2] = system: panel of 60 tumour cell lines; experiment: NCI 60-cell line one-dose screen, summary over the panel; format: cell-based, human; conditions: Homo sapiens, 60 cell, listed leukaemia, lung, colon, CNS, melanoma, ovarian, renal, breast lines, read-out: GI% range, potent growth inhibitory effects on the cell lines listed in the text
Description: Anticancer activity screening of the newly synthesised compounds was measured in vitro utilising 60 different human tumour cell lines provided by US National Cancer Institute according to previously reported standard procedure[41–43] as follows: Cells are inoculated into 96-well microtiter plates in 100 ml. After cell inoculation, the microtiter plates are incubated at 37 °C, 5% CO2, 95% air, and 100% relative humidity for 24 h prior to addition of experimental compounds. After 24 h, two plates of each cell line are fixed in situ with TCA, to represent a measurement of the cell population for each cell line at the time of compound addition (Tz). Experimental compounds are solubilised in dimethyl sulfoxide at 400-fold the desired final maximum test concentration and stored frozen prior to use. At the time of compound addition, an aliquot of frozen concentrate is thawed and diluted to twice the desired final maximum test concentration with a complete medium containing […] gentamicin. Aliquots of […] of the compounds dilutions are added to the appropriate microtiter wells already containing 100 ml of medium, resulting in the required final compound concentration. Following compound addition, the plates are incubated for an additional 48 h at 37 °C, 5% CO2, 95% air, and 100% relative humidity. […] The bound stain is subsequently solubilised with a 10 mM trizma base, and the absorbance is read on an automated plate reader at a wavelength of 515 nm. […] Using the absorbance measurements [time zero, (Tz), control growth, (C), and test growth in the presence of compound (Ti)], the percentage growth is calculated for each compound. […]
Fifteen newly synthesised compounds were tested for their in vitro antiproliferative activity by the National Cancer Institute (NCI), Maryland, USA[50], under the Developmental Therapeutic Program (DTP)[41]^,[43]^,[51]^,[52]. The tested compounds were evaluated at a concentration of 10 µM on a panel of 60 tumour cell lines representing leukaemia and non-small cell lung, colon, CNS, melanoma, ovarian, renal, prostate, and breast cancers. […]

Structure (SMILES): Cc1ccc(C(=O)c2ccc(CC(=O)NN=Cc3ccc(O)cc3O)n2C)cc1 [Compound 5c, N′-(2,4-Dihydroxybenzylidene)-2–(1-methyl-5–(4-methylbenzoyl)-1H-pyrrol-2-yl) acetohydrazide]
- IC50 [1]: 31.7 ± 1.7 µM
- inhibition at 10 µM (MALME-3M): 51.4%
- inhibition at 10 µM (Colo 205): 58.2%
- inhibition at 10 µM (HT29): 36%
- inhibition at 10 µM (SF-539): 55.6%
- inhibition at 10 µM (HS 578 T): 25.1%
- inhibition at 10 µM (HL-60 (TB)): 95.5%
- inhibition at 10 µM (UACC-257): 41.7%
- inhibition at 10 µM (ACHN): 83.5%
- inhibition at 10 µM (UO-31): 80.2%
- inhibition at 10 µM (786-0): 56.6%
- inhibition at 10 µM (NCI-H460): 78.9%
- inhibition at 10 µM (SK-MEL-28): 53.6%
- inhibition at 10 µM (SR): 82.7%
- inhibition at 10 µM (SK-MEL-2): 40.6%
- inhibition at 10 µM (SK-OV-3): 54.9%
- inhibition at 10 µM (OVCAR-4): 79.3%
- inhibition at 10 µM (NCI-H23): 57.6%
- inhibition at 10 µM (KM12): 63.9%
- inhibition at 10 µM (HCT-15): 83.2%
- inhibition at 10 µM (HCC-2998): 40.4%
- inhibition at 10 µM (DU-145): 48.7%
- inhibition at 10 µM (TK-10): 47.1%
- inhibition at 10 µM (OVCAR-5): 36.6%
- inhibition at 10 µM (NCI-H226): 34.3%
- inhibition at 10 µM (SK-MEL-5): 60.7%
- inhibition at 10 µM (CAKI-1): 53.4%
- inhibition at 10 µM (OVCAR-3): 62.8%
- IC50 (renal (UO-31) cell line): 17.4 ± 0.93 µM
- IC50 (colon (HCT-15) cell line): 19 ± 1.03 µM
- inhibition at 10 µM [2]: 60.7 to 95%
